According to ChEMBL document CHEMBL1134308, “Novel tropane-based irreversible ligands for the dopamine transporter” (J Med Chem, 2001):

Molecular target: Sodium-dependent dopamine transporter (Rattus norvegicus, UniProt P23977)
Assay: Displacement of [3H]WIN-35 428 binding at dopamine transporter (DAT) in rat caudate putamen
Assay type: tissue-based

Chain of Sodium-dependent dopamine transporter (P23977 whole entry): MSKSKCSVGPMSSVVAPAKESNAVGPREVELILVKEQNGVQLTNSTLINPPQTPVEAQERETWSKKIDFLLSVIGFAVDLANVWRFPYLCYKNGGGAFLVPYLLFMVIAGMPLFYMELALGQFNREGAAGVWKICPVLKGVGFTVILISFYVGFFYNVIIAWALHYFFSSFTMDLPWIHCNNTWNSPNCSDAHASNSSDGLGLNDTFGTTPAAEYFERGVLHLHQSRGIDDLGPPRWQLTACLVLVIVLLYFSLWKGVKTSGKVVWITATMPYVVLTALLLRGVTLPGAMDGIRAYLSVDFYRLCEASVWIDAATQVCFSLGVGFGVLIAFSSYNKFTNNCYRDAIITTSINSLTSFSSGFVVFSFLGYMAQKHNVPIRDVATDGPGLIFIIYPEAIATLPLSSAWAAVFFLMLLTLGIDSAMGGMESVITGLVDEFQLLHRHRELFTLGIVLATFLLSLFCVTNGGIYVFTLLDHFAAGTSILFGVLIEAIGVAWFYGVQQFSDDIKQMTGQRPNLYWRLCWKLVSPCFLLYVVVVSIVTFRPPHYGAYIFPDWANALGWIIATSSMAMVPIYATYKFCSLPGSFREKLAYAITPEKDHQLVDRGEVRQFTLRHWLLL

| Structure (SMILES) | Ki [nM] |
| --- | --- |
| COC(=O)C1C(c2ccc(Cl)cc2)CC2CCC1N2CCCCc1ccc(N=[N+]=[N-])c(I)c1 (stereo unspecified) | 33 |
| CN1C2CCC1C(C(=O)OCCc1ccc(N=[N+]=[N-])c(I)c1)C(c1ccc(Cl)cc1)C2 (stereo unspecified) | 14.5 |
| COC(=O)C1C(c2ccc(Cl)cc2)CC2CCC1N2CCCCc1ccc(N=C=S)cc1 (stereo unspecified) | 31.5 |
| [N-]=[N+]=Nc1ccc(CCCN2[C@@H]3CC[C@H]2C[C@@H](OC(c2ccc(F)cc2)c2ccc(F)cc2)C3)cc1I | 284 |
| Fc1ccc(C(O[C@H]2C[C@H]3CC[C@@H](C2)N3CCCc2ccc(N=C=S)cc2)c2ccc(F)cc2)cc1 | 611 |
| Fc1ccc(C(O[C@H]2C[C@H]3CC[C@@H](C2)N3CCCCc2ccc(N=C=S)cc2)c2ccc(F)cc2)cc1 | 420 |
